Measured values: the supplement of paper PMC10307832

How the values were obtained:
Experiment in all cases: relative viability (nuclei count vs DMSO), 5 days (fraction); higher = more cells survive
[1] = compound: CN(NC(=O)CC(=O)NN(C)C(=S)c1ccccc1)C(=S)c1ccccc1 [Elesclomol] + CC(=O)Nc1cccc(-n2c(=O)n(C3CC3)c(=O)c3c(Nc4ccc(I)cc4F)n(C)c(=O)c(C)c32)c1 [Trametinib] (partner 0.02 µM)
How it was run: (§1)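 Five library-drug doses in √10 steps were combined with a fixed anchor-drug dose, or a single drug was given alone, by pin tool to lung cancer cell lines in 1536-well plates the day after seeding. Nuclei were stained and counted after 5 days. Relative viability is the nuclei count in treated wells over that in vehicle wells, taken as the median of duplicate plates.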

[2] = compound: CN(NC(=O)CC(=O)NN(C)C(=S)c1ccccc1)C(=S)c1ccccc1 [Elesclomol] + CS(=O)(=O)N1CCN(Cc2cc3nc(-c4cccc5[nH]ncc45)nc(N4CCOCC4)c3s2)CC1 [Pictilisib] (partner 1 µM)
How it was run: as §1

[3] = compound: CN(NC(=O)CC(=O)NN(C)C(=S)c1ccccc1)C(=S)c1ccccc1 [Elesclomol] + C[C@@H](Oc1cc(-c2cnn(C3CCNCC3)c2)cnc1N)c1c(Cl)ccc(F)c1Cl [Crizotinib] (partner 1 µM)
How it was run: as §1

[4] = compound: CN(NC(=O)CC(=O)NN(C)C(=S)c1ccccc1)C(=S)c1ccccc1 [Elesclomol] + NC(=O)Nc1cc(-c2cccc(F)c2)sc1C(=O)N[C@H]1CCCNC1 [AZD7762] (partner 0.2 µM)
How it was run: as §1

[5] = compound: CN(NC(=O)CC(=O)NN(C)C(=S)c1ccccc1)C(=S)c1ccccc1 [Elesclomol] + O=C(c1cc(Cc2n[nH]c(=O)c3ccccc23)ccc1F)N1CCN(C(=O)C2CC2)CC1 [Olaparib] (partner 8 µM)
How it was run: as §1

Cell Line	relative viability ([1]; first compound 0.003162 µM)	relative viability ([1]; first compound 0.01 µM)	relative viability ([1]; first compound 0.1 µM)	relative viability ([2]; first compound 0.003162 µM)	relative viability ([2]; first compound 0.01 µM)	relative viability ([2]; first compound 0.03162 µM)	relative viability ([2]; first compound 0.1 µM)	relative viability ([3]; first compound 0.003162 µM)	relative viability ([3]; first compound 0.01 µM)	relative viability ([3]; first compound 0.03162 µM)	relative viability ([3]; first compound 0.1 µM)	relative viability ([4]; first compound 0.003162 µM)	relative viability ([4]; first compound 0.01 µM)	relative viability ([4]; first compound 0.03162 µM)	relative viability ([4]; first compound 0.1 µM)	relative viability ([5]; first compound 0.003162 µM)	relative viability ([5]; first compound 0.01 µM)	relative viability ([5]; first compound 0.03162 µM)	relative viability ([5]; first compound 0.1 µM)	relative viability ([1]; first compound 0.03162 µM)
EMC-BAC-2	0.813	0.808	0.4	0.606	0.374	0.48	0.316	0.762	0.718	0.698	0.406	1.2	0.775	0.831	0.684	0.445	0.345	0.381	0.288	
LU99A	0.618	0.371	0.339	0.316		0.325	0.137	0.545		0.648	0.121	0.357	0.329	0.418	0.185	0.286	0.223	0.247	0.173	0.58
LK-2	0.468	0.454	0.115	0.418	0.177	0.149	0.117	0.224	0.213	0.124	0.106		0.37	0.279	0.0458	0.65	0.503	0.332	0.0869	0.428
NCI-H3122	0.23	0.21	0.0967	0.567	0.594	0.594	0.304	0.253	0.329	0.296	0.217	0.97	0.972	0.912	0.0974	0.606	0.665	0.563	0.105	0.216
NCI-H2347	0.341	0.264	0.256	0.543	0.689	0.629	0.396	0.626	0.503	0.416	0.433	0.703	0.661	0.629	0.447	0.591	0.463	0.525	0.339	0.33
HCC-827	0.571	0.442	0.504	1.03	0.988	1.04	0.811	0.965	0.94	0.96	0.675	0.25	0.253	0.163	0.191	0.58	0.522	0.672	0.475	0.555
NCI-H1666	0.801	0.675	0.662	0.359	0.267	0.243	0.195	0.745	0.271	0.235	0.15	0.784	0.807	0.492	0.416	0.666	0.703	0.662	0.603	0.689
NCI-H358	0.107	0.103	0.0746	0.24	0.196	0.191	0.163	0.215	0.151	0.204	0.171	0.305	0.182	0.161	0.102	0.758	0.346	0.107	0.138	0.0862
201T	0.707	0.749	0.682	0.672	0.652	0.665	0.674	1.01	0.976	0.978	0.99	0.558	0.628	0.564	0.598	0.843	0.843	0.844	0.705	0.742
PC-3 [JPC-3]	0.714	0.473	0.5	0.738	0.604	0.878	0.581	0.972	0.959	1.02	0.743	0.741	0.539	0.438	0.401	1.13	0.968	0.728	0.627	0.435
NCI-H2405	0.687	0.468	0.272	0.472	0.249	0.228	0.236	0.785	0.565	0.306	0.307	0.692	0.576	0.269	0.281	0.737	0.693	0.386	0.353	0.295
LXF-289	0.676	0.65	0.423	0.781	0.709	0.749	0.501	0.811	0.775	0.767	0.588	1.01	1.04	0.974	0.509	1.11	1.01	0.939	0.544	0.663
EKVX	0.313	0.188	0.105	0.386	0.249	0.176	0.157	0.741	0.486	0.376	0.21	0.569	0.318	0.206	0.0929	0.713	0.364	0.193	0.106	0.144
A-427	0.761	0.411	0.183	0.678	0.345	0.648	0.45	0.959	0.744	0.895	0.277	0.756	0.527	0.188	0.151	0.52	0.424	0.232	0.164	0.236
ChaGo-K-1	0.932	0.802	0.15	0.481	0.239	0.194	0.242	0.596	0.376	0.288	0.258	0.88	0.715	0.416	0.139	0.423	0.396	0.232	0.125	0.571
LCLC-97TM1	0.198	0.192	0.0969	0.173	0.118	0.115	0.0666	0.283	0.253	0.319	0.0642	0.234	0.158	0.16	0.0576	0.402	0.295	0.379	0.0862	0.195
